In patent publication US7553821B2, “Methods for selectively modulating survivin apoptosis pathways” (Yale University, priority 2000, dated 2009):

Key:
YUSAC-2 melanoma cells = assay: Apoptosis in Tet-regulated YUSAC-2 transfectants (DNA content, TUNEL, caspase-9 Western blot); type: cell-based, human; conditions: for G2/M and apoptotic (sub-G1) DNA content after transgene induction: stably transfected YUSAC-2 lines, Tet withdrawn (transgene expressed)
Method: Three YUSAC-2 melanoma cell lines stably transfected with survivin(T34A) in pTet splice were analyzed for DNA content by propidium iodide staining and flow cytometry in the presence (Tet+) or absence (Tet−) of Tet. The percentages of cells with sub-G1 (apoptotic) DNA content after a 3-d culture at 37° C. are indicated.
The experimental conditions are the same as in A, except that a subclone of YUSAC-2 transfectants, F5.C4 was analyzed in the presence (Tet+) or in the absence (Tet−) of Tet for internucleosomal DNA fragmentation by end-labeling with terminal deoxynucleotidyl transferase (TdT) and a peroxidase-conjugated anti-digoxigenin antibody.
Tet+ and Tet− F5.C4 cells characterized as described in FIG. 4, were harvested at the indicated time intervals after thymidine release and immunoblotted with an antibody to caspase-9. TNF+CHX, extract of HeLa cells treated with 10 ng/ml TNFα plus 10 μg/ml cycloheximide. Arrows, position of ˜46 kDa proform caspase-9, and ˜35 kDa and ˜37 kDa active caspase-9 bands.
Cells were then fixed, permeabilized and stained with propidium iodide for DNA content as described (Grossman et al., 1999). The marker indicates the sub-G1 fraction, corresponding to apoptotic cells.
Cells were fixed in 1% paraformaldehyde for 10 minutes at room temperature and then permeabilized with acetic acid and ethanol for 5 minutes at […]. Arrows indicate TUNEL-reactive (Shockett et al., 1995) cells with apoptotic morphology.
Transfection experiments. For transient transfection, HeLa cells in C-6 tissue culture plates (Costar, Cambridge, Mass.) at ˜60-70% confluency, were incubated in 1 ml of serum-free OptiMEM medium (Life Technologies, Gaithersburg, Md.) for 20 min, and transfected with 2.5 μg of the various plasmid cDNAs plus 9 μl Lipofectamine (Life Technologies). After a 5 h incubation at 37° C., the mixture was aspirated and substituted with complete growth medium for 48-72 h. To generate stable YUSAC-2 transfectants, a survivin(T34A) cDNA was inserted into the HindIII-SpeI sites of the pTet-splice vector (Dr. D. Schatz, Yale University School of Medicine), downstream of the regulatory sequences of the Tet-resistance operon (TetO). YUSAC-2 cells were transfected with 0.8 μg pTet-T34A, 0.8 μg of the transactivation/selection plasmid ptTA-Neo and 5 μl Lipofectamine in 1 ml of OptiMem. Forty-eight h after transfection, cells were re-plated at low density in 15×150 mm plates in growth medium containing 1.5 mg/ml Geneticin (G418, Life Technologies), 2 mM sodium hydroxide and 0.5 μg/ml Tet (Sigma, St. Louis, Mo.) (selection medium). […] Gated GFP-expressing cells were analyzed for DNA content by flow cytometry on a FACSort (Becton Dickinson, San Jose, Calif.) using a Cell Quest software. […]

[1] = system: YUSAC-2 human melanoma cells; assay: Melanoma tumor formation in CB.17 immunodeficient mice; type: in vivo, CB.17 SCID/beige mice
Method: To determine whether interference with survivin function by regulated expression of survivin antagonists could block melanoma tumor formation in CB.17 immunodeficient mice, mice were monitored for 8 weeks following subcutaneous injection, and tumor measurements taken at 4- and 8-week time points (Table I). It was determined that YUSAC-2 cells consistently form localized tumors in 6 to 8-week-old female CB.17 SCID/beige mice (Taconic Farms, Germantown, N.Y.) approximately 3-4 weeks following subcutaneous injection of 1-3×10^6 cells. Animals were monitored for up to 4 months, and neither mortality nor gross metastasis is associated with increasing tumor size (up to 5000 mm^3) or ulceration. One day prior to injection, mice were shaved on the right flank, and the regular drinking water was replaced with 5% sucrose alone or containing […] tet as described (Shockett et al., 1995). Cells were harvested in log-phase growth, washed twice in PBS, resuspended in PBS (12×10^6 cells per ml) and injected (0.25 ml, 3×10^6 cells) subcutaneously. The drinking water was changed every 2-3 days. Tumor size was determined by the product of two perpendicular diameters and the height above the skin surface.
Table 1. Summary of tumor formation for all animals. CB.17 mice were injected with cells and tet was added or withheld from the drinking water. […]

survivin(T34A): dominant-negative, non-phosphorylatable survivin mutant with Thr34→Ala substitution, expressed from transfected cDNA (also HA- or GFP-tagged)
internucleosomal DNA fragmentation by TUNEL (YUSAC-2 melanoma cells; F5.C4 cells, Tet-deprived): stained intensely for internucleosomal DNA fragmentation by TUNEL | caspase-9 processing by Western blotting (YUSAC-2 melanoma cells; cell cycle synchronized Tet− F5.C4 cells after thymidine release): time-dependent cleavage of 46 kDa proform caspase-9 and generation of ˜35 kDa and ˜37 kDa active caspase-9 bands | G2/M and apoptotic (sub-G1) DNA content after transgene induction (YUSAC-2 melanoma cells): nearly complete loss of mitotic (G2/M) cells, and appearance of a prominent population with apoptotic (sub-G1) DNA content | G2/M and apoptotic (sub-G1) DNA content after transgene induction (YUSAC-2 melanoma cells; listed as Thr^34→Ala mutant): progressive time-dependent loss of mitotic (G2/M) cells and coincident accumulation of apoptotic cells | Tumor size (mean ± standard deviation, only mice with tumors) ([1]; 8 Weeks, F5.C4 cells s.c., tet absent): 278 ± 116 mm^3 | size and onset of tumors in tet-deprived animals compared to animals given tet ([1]; F5.C4 cells, two tet-deprived animals with tumors): considerably smaller in size and appeared with a markedly delayed onset
